# Results as given in PubChem BioAssay (NCI).
# Values joined by “and” are separate entries in the source; they are usually repeats but may differ in a detail not shown here. Equal entries are not always repeated.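 Method: 48-hour compound exposure of cells in 96-well plates, five concentrations, linear interpolation of endpoints. GI50: concentration for 50% inhibition of growth. At the TGI there is no net growth.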
# Key:
# Test in all cases: NCI tumour cell line growth inhibition, 48 h
# [1] = system: SK-MEL-28 melanoma
# [2] = system: BT-549 breast
# [3] = system: SR leukemia
# [4] = system: HS 578T breast
# [5] = system: EKVX NSCLC
# [6] = system: UACC-257 melanoma
# [7] = system: OVCAR-8 ovarian
# [8] = system: RXF 393 renal
# [9] = system: KM12 colon
# [10] = system: HOP-62 NSCLC
# [11] = system: HCT-15 colon
# [12] = system: RPMI-8226 leukemia
# [13] = system: MALME-3M melanoma
# [14] = system: SF-295 CNS
# [15] = system: 786-0 renal
# [16] = system: SN12C renal
# [17] = system: SW-620 colon
# [18] = system: SF-268 CNS
# [19] = system: K-562 leukemia
# [20] = system: SK-MEL-2 melanoma
# [21] = system: M14 melanoma
# [22] = system: DU-145 prostate
# [23] = system: UO-31 renal
# [24] = system: OVCAR-4 ovarian
# [25] = system: SNB-75 CNS
# [26] = system: HOP-92 NSCLC
# [27] = system: TK-10 renal
# [28] = system: PC-3 prostate
# [29] = system: HCC-2998 colon
# [30] = system: MDA-MB-435
# [31] = system: SK-MEL-5 melanoma
# [32] = system: IGROV1 ovarian
# [33] = system: HL-60(TB) leukemia
# [34] = system: NCI-H23 lung
# [35] = system: SK-OV-3 ovarian
# [36] = system: T-47D breast
# [37] = system: SF-539 CNS
# [38] = system: OVCAR-3 ovarian
# [39] = system: CCRF-CEM leukemia
# [40] = system: MDA-MB-231 breast
# [41] = system: NCI-H522 lung
# [42] = system: NCI-H460 lung
# [43] = system: COLO 205 colon
# [44] = system: HCT-116 colon
# [45] = system: NCI/ADR-RES ovarian
# [46] = system: A549 NSCLC
# [47] = system: U251 CNS
# [48] = system: MCF7 breast
# [49] = system: HT29 colon
# [50] = system: UACC-62 melanoma
# [51] = system: ACHN renal
# [52] = system: LOX IMVI melanoma
# [53] = system: A498 renal
# [54] = system: MOLT-4 leukemia
# [55] = system: OVCAR-5 ovarian
# [56] = system: SNB-19 CNS
# [57] = system: CAKI-1 renal
# [58] = system: NCI-H226 lung
compound,measurement,setting,value
CCN(CC)c1ccc(CNc2cc(C)nc3ccc(OC)cc23)cc1,GI50,[1],1860 nM
same,TGI,[1],3.38 µM
same,GI50,[2],3220 nM
same,TGI,[2],10700 nM
same,GI50,[3],1870 nM
same,TGI,[3],4.56 µM
same,GI50,[4],2320 nM
same,TGI,[4],6.73 µM
same,GI50,[5],3140 nM
same,TGI,[5],15300 nM
same,GI50,[6],2140 nM
same,TGI,[6],4530 nM
same,GI50,[7],4050 nM
same,TGI,[7],15.9 µM
same,GI50,[8],2020 nM
same,TGI,[8],3870 nM
same,GI50,[9],3100 nM
same,TGI,[9],11600 nM
same,GI50,[10],7240 nM
same,TGI,[10],21 µM
same,GI50,[11],3110 nM
same,TGI,[11],10.8 µM
same,GI50,[12],1710 nM
same,TGI,[12],4.2 µM
same,GI50,[13],1800 nM
same,TGI,[13],3430 nM
same,GI50,[14],1780 nM
same,TGI,[14],3.89 µM
same,GI50,[15],2010 nM
same,TGI,[15],4290 nM
same,GI50,[16],5330 nM
same,TGI,[16],20.6 µM
same,GI50,[17],1750 nM
same,TGI,[17],3.47 µM
same,GI50,[18],4170 nM
same,TGI,[18],16.1 µM
same,GI50,[19],1370 nM
same,TGI,[19],4.34 µM
same,GI50,[20],1830 nM
same,TGI,[20],3560 nM
same,GI50,[21],1890 nM
same,TGI,[21],3700 nM
same,GI50,[22],6.17 µM
same,TGI,[22],18.6 µM
same,GI50,[23],1750 nM
same,TGI,[23],6230 nM
same,GI50,[24],5000 nM
same,TGI,[24],16.5 µM
same,GI50,[25],2040 nM
same,TGI,[25],5050 nM
same,GI50,[26],2000 nM
same,TGI,[26],6260 nM
same,GI50,[27],1920 nM
same,TGI,[27],4640 nM
same,GI50,[28],2820 nM
same,TGI,[28],13100 nM
same,GI50,[29],1770 nM
same,TGI,[29],3.32 µM
same,GI50,[30],1670 nM
same,TGI,[30],3380 nM
same,GI50,[31],1300 nM
same,TGI,[31],2720 nM
same,GI50,[32],4050 nM
same,TGI,[32],19200 nM
same,GI50,[33],1600 nM
same,TGI,[33],4.23 µM
same,GI50,[34],2700 nM
same,TGI,[34],9800 nM
same,GI50,[35],10300 nM
same,TGI,[35],22 µM
same,GI50,[36],1960 nM
same,TGI,[36],4610 nM
same,GI50,[37],2220 nM
same,TGI,[37],4360 nM
same,GI50,[38],3120 nM
same,TGI,[38],12800 nM
same,GI50,[39],2780 nM
same,TGI,[39],10.2 µM
same,GI50,[40],2460 nM
same,TGI,[40],6.81 µM
same,GI50,[41],1510 nM
same,TGI,[41],3280 nM
same,GI50,[42],1970 nM
same,TGI,[42],4330 nM
same,GI50,[43],1310 nM
same,TGI,[43],2760 nM
same,GI50,[44],2340 nM
same,TGI,[44],7760 nM
same,GI50,[45],3080 nM
same,TGI,[45],14.3 µM
same,GI50,[46],6410 nM
same,TGI,[46],21.2 µM
same,GI50,[47],2040 nM
same,TGI,[47],4.3 µM
same,GI50,[48],1700 nM
same,TGI,[48],3.53 µM
same,GI50,[49],955 nM
same,TGI,[49],3.59 µM
same,GI50,[50],1720 nM
same,TGI,[50],3670 nM
same,GI50,[51],2630 nM
same,TGI,[51],7.17 µM
same,GI50,[52],1670 nM
same,TGI,[52],3470 nM
same,GI50,[53],2240 nM
same,TGI,[53],10100 nM
same,GI50,[54],3160 nM
same,TGI,[54],9.69 µM
same,GI50,[55],5370 nM
same,TGI,[55],18600 nM
same,GI50,[56],3.98 µM
same,TGI,[56],16.3 µM
same,GI50,[57],1890 nM
same,TGI,[57],10.5 µM
same,GI50,[58],3120 nM
same,TGI,[58],14400 nM
CC(C)C[C@H](NC(=O)[C@H](Cc1ccccc1)NC(=O)c1cnccn1)B(O)O,GI50,[1],1.04 nM
same,GI50,[2],1.03 nM
same,TGI,[2],< 13.9 nM and 3.41 nM
same,GI50,[3],2.19 nM
same,GI50,[4],< 10 nM and 1.92 nM
same,GI50,[5],< 17.5 nM and 4.19 nM
same,TGI,[5],2060 nM and 417 nM and 2330 nM
same,GI50,[6],1.07 nM
same,TGI,[6],3.49 nM
same,GI50,[7],17.5 nM and 4.27 nM
same,GI50,[8],1.19 nM
same,TGI,[8],< 10 nM and 2.55 nM
same,GI50,[9],2.29 nM
same,TGI,[9],36.7 nM and 8.12 nM
same,GI50,[10],< 13.1 nM and 3.17 nM
same,GI50,[11],2.37 nM
same,GI50,[12],0.85 nM
same,GI50,[13],1.16 nM
same,TGI,[13],< 45.4 nM and 19.4 nM
same,GI50,[14],2.15 nM
same,GI50,[15],2.45 nM
same,TGI,[15],381 nM and 96.7 nM and 411 nM
same,GI50,[16],< 11.4 nM and 1.94 nM
same,GI50,[17],1.21 nM
same,GI50,[18],2.88 nM
same,GI50,[19],3.98 nM
same,TGI,[19],> 100 µM
same,GI50,[20],1.72 nM
same,TGI,[20],< 22.3 nM and 10.1 nM
same,GI50,[21],3.22 nM
same,TGI,[21],< 18.4 nM and 32.1 nM
same,GI50,[22],0.00311 µM
same,GI50,[23],1.93 nM
same,TGI,[23],22.8 nM and 17.9 nM
same,GI50,[24],< 11.3 nM and 3.15 nM
same,TGI,[24],0.179 µM
same,GI50,[25],2.32 nM
same,TGI,[25],26.6 nM and 6.98 nM
same,GI50,[26],1.5 nM
same,TGI,[26],19.6 nM and 7.23 nM
same,GI50,[27],1.64 nM
same,TGI,[27],< 69.3 nM and 12.9 nM
same,GI50,[28],12.5 nM and 3.64 nM
same,TGI,[28],197 nM and 95.2 nM and 106 nM
same,GI50,[29],0.597 nM
same,GI50,[30],0.748 nM
same,TGI,[30],< 10 nM and 1.86 nM
same,GI50,[31],< 10 nM and 1.4 nM
same,TGI,[31],14 nM and 4.11 nM
same,GI50,[32],13 nM and 3.85 nM
same,TGI,[32],137 nM and 102 nM and 150 nM
same,GI50,[33],2.96 nM
same,GI50,[34],1.75 nM
same,TGI,[34],183 nM and 19.7 nM
same,GI50,[35],18.7 nM and 8.5 nM
same,GI50,[36],1.67 nM
same,TGI,[36],< 10 nM and 4.11 nM
same,GI50,[37],1.19 nM
same,TGI,[37],< 10 nM and 2.71 nM
same,GI50,[38],1.04 nM
same,TGI,[38],< 12.4 nM and 2.38 nM
same,GI50,[39],< 10 nM and 1.04 nM
same,GI50,[40],< 11.8 nM and 1.77 nM
same,TGI,[40],0.00541 µM
same,GI50,[41],1.43 nM
same,TGI,[41],< 215 nM and 4.14 nM
same,GI50,[42],18.3 nM and 4.68 nM
same,TGI,[42],121 nM and 39.7 nM and 150 nM
same,GI50,[43],2.84 nM
same,TGI,[43],1310 nM and 217 nM
same,GI50,[44],1.08 nM
same,TGI,[44],< 16.1 nM and 3.28 nM
same,GI50,[45],61.3 nM
same,GI50,[46],< 11.2 nM and 3.62 nM
same,TGI,[46],5.02 µM and 0.615 µM
same,GI50,[47],2.56 nM
same,GI50,[48],1.3 nM
same,GI50,[49],1.66 nM
same,GI50,[50],1.49 nM
same,TGI,[50],< 16.8 nM and 4.98 nM
same,GI50,[51],1.81 nM
same,GI50,[52],1.35 nM
same,TGI,[52],< 12.9 nM and 4.13 nM
same,GI50,[53],0.833 nM
same,TGI,[53],< 10 nM and 3.52 nM
same,GI50,[54],1.43 nM
same,GI50,[55],2.6 nM
same,TGI,[55],66.7 nM and 31.2 nM and < 49.9 nM
same,GI50,[57],1.48 nM
same,GI50,[58],< 10 nM and 0.89 nM
same,TGI,[58],< 10 nM and 2.06 nM
